Results as given in patent publication US20240294467A1, “USP9X Inhibitors” (ProDeg, LLC, priority 2021, published 2024).
Where two headings read alike, the source gives them in different places.

Tests used:
[1] = tested on: RKO colon cells; test: WST-1 cell viability assay; assay type: cell-based
Description: (§1) Compound Compound 9A was tested for the ability to inhibit the proliferation of Mia-Paca-2 pancreatic cancer cells. Mia-Paca-2 and MDA-MB-231 cells were seeded into the wells of a 96 well tissue culture plate in complete medium (10% fetal calf serum) and incubated overnight at 37° C./5% CO2). The medium was exchanged for fresh medium containing varying concentrations of Compound 9A and the plate was incubated for 72 hours at 37° C./5% CO2. The viability of cells at the end of this incubation was assessed with the WST-1 reagent. To 10 ml of warm (37° C.) complete medium, 1 ml WST-1 reagent was added. The medium from the wells of the plate with the Mia-Paca-2 cells was removed and replaced with 100 μL of the WST-1 reagent in complete medium. The plate was incubated at 37 37° C./5% CO2. At timed intervals the absorbance at 450 nm was determined for each well in a UVNis plate reader. For each well the slope of the plot of the absorbance 450 nm vs time was determined. The readings were normalized to that of the wells for the untreated control and a dose-response curve was plotted. A fit to the data was made from a four parameter, variable slope program (GraphPad Prism) and the IC50 was determined.
(§2) The same procedures were also applied to the compounds Compound 7A, Compound 6A, and Compound 8A to test their inhibitory activities against RKO colon, Mia-Paca-2 pancreatic and BT-549 cancer cells.

[2] = tested on: Mia-Paca-2 pancreatic cancer cells; test: WST-1 cell viability assay; assay type: cell-based; details: Mia-Paca-2 pancreatic cells
Description: as §1, §2

[3] = tested on: erbB2; test: Western blot of erbB2 in SK-BR3 cells; assay type: cell-based, human; details: 72-hour treatment, 10 μm
Description: Another substrate of USP9X is the receptor tyrosine kinase erbB2. […] The breast cancer cell line SK-BR3 expresses high levels of erbB2. This cell line was treated with Compound 7A and the effects on cell viability as well as expression levels of erbB2 were examined.
Compound 7A inhibited the viability of SK-BR3. The levels of erbB2 were determined by Western blot and found to decrease in parallel with the decline in cell viability. After 72-hour treatment of 10 μm Compound 7A, the level of erbB2 declined to about zero. The loss of erbB2 from the plasma membrane was also confirmed by flow cytometry.

[4] = tested on: BT-549 cancer cells; test: WST-1 cell viability assay; assay type: cell-based, human; details: BT-549 cells
Description: as §1, §2

[5] = tested on: Mcl-1; test: Capture ELISA of Mcl-1 and ubiquitylated Mcl-1 in MIA-PaCa-2 cells; assay type: cell-based, human; details: 24 hours
Description: MIA-PaCa-2 cells were treated with Compound 7A at 25 μM, 12.5 μM, 6.25 μM, and 3.125 μM, respectively, for 24 hours. Capture ELISA of Mcl-1 was performed using a dilution series of MIA-PaCa-2 cell lysates equalized for total protein in a 96-well plate coated with sheep anti-human Mcl-1 (R&D Systems, #AF8281). Detection of Mcl-1 was performed using biotinylated sheep anti-human Mcl-1 followed by streptavidin-horseradish peroxidase and TMB development. For detection of ubiquitylated Mcl-1 the same capture conditions were used but employing a biotinylated mouse anti-human ubiquitin antibody (R&D Systems, #MAB701), again detecting with streptavidin-horseradish peroxidase and TMB development. Lysate samples were run in triplicate and percentages were calculated based on the signal generated from cell lysates with no compound added (vehicle control samples). […] With 12.5 μM Compound 7A, Mcl-1 declined by about 25.0% whereas ubiquitylated Mcl-1 increased by about 14.0%.

[6] = tested on: U937 cells; test: WST-1 cell viability assay; assay type: cell-based; details: for IC50: Homo sapiens, U-937, 72-hour treatment
Description: as §1
The effect of Compound 7A on U937 cells was assessed using the same experiment described in the Inhibitory Activities against the Proliferation of Mia-Paca-2 and Other Cancer Cells section above. In response to treatment with Compound 7A, proliferation of U937 leukemia cells was inhibited and induced apoptosis was obsessed by trypan blue staining.
U937 cells were treated with the Bcl-2/Bcl-xL inhibitor ABT737 72 hours at varying concentrations and underwent western blot analysis.

[7] = tested on: A388; test: ONCOLINES Profiler proliferation; assay type: cell-based; details: A388, epidermal carcinoma
Source text: (§3) The compounds were profiled on an ONCOLINES™ Profiler (Netherlands Translational Research Center) assayed with 66 cancer cell lines to determine if they were capable of inhibiting the proliferation of these cancer cells.

[8] = tested on: SK-N-AS; test: ONCOLINES Profiler proliferation; assay type: cell-based; details: Homo sapiens, neuroblastoma
Source text: as §3

[9] = tested on: HCT-116; test: ONCOLINES Profiler proliferation; assay type: cell-based; details: Homo sapiens; HCT-116, colon carcinoma
Source text: as §3

[10] = tested on: AN3 CA; test: ONCOLINES Profiler proliferation; assay type: cell-based; details: Homo sapiens, endometrium adenocarcinoma
Source text: as §3

[11] = tested on: K-562; test: ONCOLINES Profiler proliferation; assay type: cell-based; details: Homo sapiens, K562; K-562, CML
Source text: as §3

[12] = tested on: PA-1; test: ONCOLINES Profiler proliferation; assay type: cell-based; details: Homo sapiens; PA-1, ovary teratocarcinoma
Source text: as §3

[13] = tested on: OVCAR-3; test: ONCOLINES Profiler proliferation; assay type: cell-based; details: Homo sapiens; OVCAR-3, ovary adenocarcinoma
Source text: as §3

[14] = tested on: SR; test: ONCOLINES Profiler proliferation; assay type: cell-based; details: Homo sapiens, large cell immunoblastic lymphoma
Source text: as §3

[15] = tested on: A-204; test: ONCOLINES Profiler proliferation; assay type: cell-based; details: Homo sapiens, A204; A-204, rhabdomyosarcoma
Source text: as §3

[16] = tested on: Jurkat E6.1; test: ONCOLINES Profiler proliferation; assay type: cell-based; details: Homo sapiens; Jurkat E6.1, T cell leukemia
Source text: as §3

[17] = tested on: A375; test: ONCOLINES Profiler proliferation; assay type: cell-based; details: Homo sapiens, A-375; A375, malignant melanoma
Source text: as §3

[18] = tested on: MIA PaCa-2; test: ONCOLINES Profiler proliferation; assay type: cell-based; details: Homo sapiens; MIA PaCa-2, pancreatic ductal carcinoma
Source text: as §3

[19] = tested on: VA-ES-BJ; test: ONCOLINES Profiler proliferation; assay type: cell-based; details: epithelioid carcinoma, bone
Source text: as §3

[20] = tested on: NCI-H460; test: ONCOLINES Profiler proliferation; assay type: cell-based; details: Homo sapiens; NCI-H460, large cell lung carcinoma
Source text: as §3

[21] = tested on: Daoy; test: ONCOLINES Profiler proliferation; assay type: cell-based; details: Homo sapiens, medulloblastoma
Source text: as §3

[22] = tested on: DoTc2 4510; test: ONCOLINES Profiler proliferation; assay type: cell-based; details: Homo sapiens; DoTc2 4510, cervix carcinoma
Source text: as §3

IC50 ([6]; read-out: IC50 for the inhibition of U937): 270 nM
IC50 ([6]; U937 cells, single agent, read-out: IC50, cell viability): 270 nM
IC50 [8]: 1720 nM
IC50 [9]: 2390 nM
IC50 [11]: 486 nM
IC50 [13]: 2400 nM
IC50 [16]: 548 nM
IC50 [17]: 2020 nM
IC50 [18]: 790 nM
IC50 [20]: 2090 nM
Structure (SMILES): CN1CCOc2ccc(cc2)C(=O)NCc2ccc(F)c(c2)C(=O)N[C@@H](CC(C)(C)C)C(=O)Nc2ccc(cc2)CCN(C)C(=O)CC(C)(C)CC1=O [Compound 7A]
cell viability [1]: significant decreases
cell viability [2]: significant decreases
level of erbB2 declined to [3]: about zero
cell viability [4]: significant decreases
Mcl-1 decline ([5]; 12.5 μM): about 25.0%
ubiquitylated Mcl-1 increase ([5]; 12.5 μM): about 14.0%
Mcl-1 decline ([5]; 25 μM): about 23.0%
ubiquitylated Mcl-1 increase ([5]; 25 μM): about 27.5%
enhancement in ABT737's potency / sensitivity of cells to ABT737 ([6]; U937 cells, co-treatment of 0.5 μM Compound 7A): 57 fold
cell viability decreased to ([6]; U937 cells, when Mcl-1 level decreased by 50%): 0
IC50 [7]: 2390 nM
IC50 [10]: 660 nM
IC50 [12]: 2070 nM
IC50 [14]: 1580 nM
IC50 [15]: 1360 nM
IC50 [19]: 682 nM
IC50 [21]: 3380 nM
IC50 [22]: 963 nM
